Laboratory results reported in US8163724B2, “Glucocorticosteroids, processes for their preparation, pharmaceutical compositions containing them and their use in therapy” (AstraZeneca AB, priority 2007, dated 2012).

What follows are compounds tested against T1, recombinant human GR (Homo sapiens, UniProt P04150) (assay: Human Glucocorticoid Receptor (GR) Assay (fluorescence polarization, Panvera/Invitrogen kit)). Conditions: fluorescence polarization; GS Red tracer; 2 hours at room temperature; 100% control 10 μM Dexamethasone; read-out: Inhibition of GR binding, IC50.
T1 construct: purchased Panvera/Invitrogen P2812 (kit P2893)
T1 sequence (P04150 1-777): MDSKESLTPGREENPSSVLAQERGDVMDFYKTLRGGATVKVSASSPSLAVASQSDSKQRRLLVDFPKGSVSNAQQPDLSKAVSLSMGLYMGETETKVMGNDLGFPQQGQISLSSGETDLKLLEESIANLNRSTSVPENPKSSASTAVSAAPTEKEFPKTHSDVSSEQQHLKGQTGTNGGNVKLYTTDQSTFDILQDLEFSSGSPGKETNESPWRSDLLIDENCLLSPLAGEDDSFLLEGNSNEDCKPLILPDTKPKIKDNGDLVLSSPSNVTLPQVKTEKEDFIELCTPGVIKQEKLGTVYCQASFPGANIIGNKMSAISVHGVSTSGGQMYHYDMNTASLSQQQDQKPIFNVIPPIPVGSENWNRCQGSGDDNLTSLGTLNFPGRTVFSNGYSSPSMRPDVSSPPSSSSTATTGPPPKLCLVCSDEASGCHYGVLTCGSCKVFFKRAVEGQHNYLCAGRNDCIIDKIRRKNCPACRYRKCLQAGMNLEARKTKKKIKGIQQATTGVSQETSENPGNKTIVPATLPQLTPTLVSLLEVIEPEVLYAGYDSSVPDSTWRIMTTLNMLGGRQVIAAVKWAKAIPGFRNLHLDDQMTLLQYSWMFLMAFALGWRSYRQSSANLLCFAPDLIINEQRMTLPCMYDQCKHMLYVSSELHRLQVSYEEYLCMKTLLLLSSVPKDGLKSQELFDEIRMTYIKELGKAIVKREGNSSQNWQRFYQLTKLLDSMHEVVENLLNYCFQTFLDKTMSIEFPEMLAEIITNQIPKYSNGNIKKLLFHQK
Assay type: binding
Summary of the method: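 Fluorescence polarization competition with recombinant GR and GS Red fluorescent ligand plus stabilizing peptide and DTT in potassium phosphate/sodium molybdate/EDTA buffer with DMSO. Incubated 2 hours at room temperature in the dark; 0% control DMSO, 100% control 10 μM dexamethasone.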

SMILES	IC50 [nM]
Cn1cccc1C(=O)O[C@]1(C(=O)SCF)CC[C@H]2[C@@H]3CCC4=Cc5c(cnn5-c5ccc(F)cc5)C[C@]4(C)[C@H]3[C@@H](O)C[C@@]21C [Example 177, (1R,3aS,3bS,10aR,10bS,11S,12aS)-1-{[(Fluoromethyl)thio]carbonyl}-7-(4-fluorophenyl)-11-hydroxy-10a,12a-dimethyl-1,2,3,3a,3b,4,5,7,10,10a,10b,11,12,12a-tetradecahydrocyclopenta[5,6]naphtho[1,2-f]indazol-1-yl 1-methyl-1H-pyrrole-2-carboxylate]	7.5
C[C@]12Cc3cnn(-c4ccc(F)c(CF)c4)c3C=C1CC[C@@H]1[C@@H]2[C@@H](O)C[C@@]2(C)[C@H]1CC[C@]2(OC(=O)c1ccco1)C(=O)SCC#N [Example 75, (1R,3aS,3bS,10aR,10bS,11S,12aS)-1-{[(Cyanomethyl)thio]carbonyl}-7-[4-fluoro-3-(fluoromethyl)phenyl]-11-hydroxy-10a,12a-dimethyl-1,2,3,3a,3 b,4,5,7,10,10a,10b,11,12,12a-tetradecahydrocyclopenta[5,6]naphtho[1,2-f]indazol-1-yl furan-2-carboxylate]	7.2
Cc1ccoc1C(=O)O[C@]1(C(=O)SCC#N)CC[C@H]2[C@@H]3CCC4=Cc5c(cnn5-c5ccc(F)cc5)C[C@]4(C)[C@H]3[C@@H](O)C[C@@]21C [Example 56, (1R,3aS,3bS,10aR,10bS,11S,12aS)-1-{[(Cyanomethyl)thio]carbonyl}-7-(4-fluorophenyl)-11-hydroxy-10a,12a-dimethyl-1,2,3,3a,3b,4,5,7,10,10a,10b,11,12,12a-tetradecahydropcyclopenta[5,6]naphtho[1,2-f]indazol-1-yl 3-methylfuran-2-carboxylate]	6.5
C[C@]12Cc3cnn(-c4ccc(F)cc4)c3C=C1CC[C@@H]1[C@@H]2[C@@H](O)C[C@@]2(C)[C@H]1CC[C@]2(OC(=O)c1ccco1)C(=O)SCCCC#N [Example 86, (1R,3aS,3bS,10aR,10bS,11S,12aS)-1-{[(3-Cyanopropyl)sulfanyl]carbonyl}-7-(4-fluorophenyl)-11-hydroxy-10a,12a-dimethyl-1,2,3,3a,3b,4,5,7,10,10a,10b,11,12,12a-tetradecahydrocyclopenta[5,6]naphtho[1,2-f]indazol-1-yl furan-2-carboxylate]	3.5
C[C@]12Cc3cnn(-c4ccc(F)cc4)c3C=C1CC[C@@H]1[C@@H]2[C@@H](O)C[C@@]2(C)[C@H]1CC[C@]2(OC(=O)C1CCCOC1)C(=O)SCC#N (single isomer, unassigned) [Example 138]	3.8
COCC(=O)O[C@]1(C(=O)SCCO)CC[C@H]2[C@@H]3CCC4=Cc5c(cnn5-c5ccc(F)cc5)C[C@]4(C)[C@H]3[C@@H](O)C[C@@]21C [Example 32, (1R,3aS,3bS,10aR,10bS,11S,12aS)-7-(4-Fluorophenyl)-11-hydroxy-1-{[(2-hydroxy-ethyl)thio]carbonyl}-10a,12a-dimethyl-1,2,3,3a,3b,4,5,7,10,10a,10b,11,12,12a-tetradecahydrocyclopenta[5,6]naphtho[1,2-f]indazol-1-yl methoxyacetate]	1.6
CCC(=O)O[C@]1(C(=O)SCF)CC[C@H]2[C@@H]3CCC4=Cc5c(cnn5-c5ccc(F)nc5)C[C@]4(C)[C@H]3[C@@H](O)C[C@@]21C [Example 99, (1R,3aS,3bS,10aR,10bS,11S,12aS)-1-{[(Fluoromethyl)sulfanyl]carbonyl}-7-(6-fluoropyridin-3-yl)-11-hydroxy-10a,12a-dimethyl-1,2,3,3a,3b,4,5,7,10,10a,10b,11,12,12a-tetradecahydrocyclopenta[5,6]naphtho[1,2-f]indazol-1-yl propanoate]	2.1
CCC(=O)O[C@]1(C(=O)SCF)CC[C@H]2[C@@H]3CCC4=Cc5c(cnn5-c5ccc(F)nc5)C[C@]4(C)[C@@]3(F)[C@@H](O)C[C@@]21C [Example 204, (1R,3aS,3bS,10aS,10bR,11S,12aS)-1-{[(Fluoromethyl)sulfanyl]carbonyl}-10b-fluoro-7-(6-fluoropyridin-3-yl)-11-hydroxy-10a,12a-dimethyl-1,2,3,3a,3b,4,5,7,10,10a,10b,11,12,12a-tetradecahydrocyclopenta[5,6]naphtho[1,2-f]indazol-1-yl propanoate]	3.3
C[C@]12Cc3cnn(-c4ccc(F)c(CF)c4)c3C=C1CC[C@@H]1[C@@H]2[C@@H](O)C[C@@]2(C)[C@H]1CC[C@]2(OC(=O)c1ccco1)C(=O)SCF [Example 76, (1R,3aS,3bS,10aR,10bS,11S,12aS)-7-[4-Fluoro-3-(fluoromethyl)phenyl]-1-{[(fluoromethyl)thio]carbonyl}-11-hydroxy-10a,12a-dimethyl-1,2,3,3a,3b,4,5,7,10,10a,10b,11,12,12a-tetradecahydrocyclopenta[5,6]naphtho[1,2]-indazol-1-yl furan-2-carboxylate]	35
C[C@]12Cc3cnn(-c4ccc(F)cc4)c3C=C1CC[C@@H]1[C@@H]2[C@@H](O)C[C@@]2(C)[C@H]1CC[C@]2(OC(=O)C1CCCCO1)C(=O)SCC#N (single isomer, unassigned) [Example 136]	4.5
COCC(=O)O[C@]1(C(=O)SCC#CCO)CC[C@H]2[C@@H]3CCC4=Cc5c(cnn5-c5ccc(F)cc5)C[C@]4(C)[C@H]3[C@@H](O)C[C@@]21C [Example 31, (1R,3aS,3bS,10aR,10bS,11S,12aS)-7-(4-Fluorophenyl)-11-hydroxy-1-{[(4-hydroxy-but-2-yn-1-yl)thio]carbonyl}-10a,12a-dimethyl-1,2,3,3a,3b,4,5,7,10,10a,10b,11,12,12a-tetradecahydrocyclopenta[5,6]naphtho[1,2-f]indazol-1-yl methoxyacetate]	4.5
CCC(=O)O[C@]1(C(=O)SC)CC[C@H]2[C@@H]3CCC4=Cc5c(cnn5-c5ccc(F)cc5)C[C@]4(C)[C@H]3[C@@H](O)C[C@@]21C [Example 21, (1R,3aS,3bS,10aR,10bS,11S,12aS)-7-(4-Fluorophenyl)-11-hydroxy-10a,12a-dimethyl-1-[(methylthio)carbonyl]-1,2,3,3a,3b,4,5,7,10,10a,10b,11,12,12a-tetradecahydropcyclopenta[5,6]naphtho[1,2-f]indazol-1-yl propanoate]	2.7
C[C@]12Cc3cnn(-c4ccc(F)cc4)c3C=C1CC[C@@H]1[C@@H]2[C@@H](O)C[C@@]2(C)[C@H]1CC[C@]2(OC(=O)c1ccco1)C(=O)SCF [Example 8, (1R,3aS,3bS,10aR,10bS,11S,12aS)-1-{[(Fluoromethyl)thio]carbonyl}-7-(4-fluorophenyl)-11-hydroxy-10a,12a-dimethyl-1,2,3,3a,3b,4,5,7,10,10a,10b,11,12,12a-tetradecahydrocyclopenta[5,6]naphtho[1,2-f]indazol-1-yl 2-furoate]	4.7
Cc1occc1C(=O)O[C@]1(C(=O)SCF)CC[C@H]2[C@@H]3CCC4=Cc5c(cnn5-c5ccc(F)cc5)C[C@]4(C)[C@H]3[C@@H](O)C[C@@]21C [Example 54, (1R,3aS,3bS,10aR,10bS,11S,12aS)-1-{[(Fluoromethyl)thio]carbonyl}-7-(4-fluorophenyl)-11-hydroxy-10a,12a-dimethyl-1,2,3,3a,3b,4,5,7,10,10a,10b,11,12,12a-tetradecahydropcyclopenta[5,6]naphtho[1,2]-indazol-1-yl 2-methylfuran-3-carboxylate]	7.3
C[C@]12Cc3cnn(-c4ccc(F)nc4)c3C=C1CC[C@@H]1[C@@H]2[C@@H](O)C[C@@]2(C)[C@H]1CC[C@]2(OC(=O)c1cocn1)C(=O)SCC#N [Example 160, (1R,3aS,3bS,10aR,10bS,11S,12aS)-1-{[(Cyanomethyl)sulfanyl]carbonyl}-7-(6-fluoropyridin-3-yl)-11-hydroxy-10a,12a-dimethyl-1,2,3,3a,3b,4,5,7,10,10a,10b,11,12,12a-tetradecahydrocyclopenta[5,6]naphtho[1,2-f]indazol-1-yl 1,3-oxazole-4-carboxylate]	2.1
COCC(=O)O[C@]1(C(=O)SCCO)CC[C@H]2[C@@H]3CCC4=Cc5c(cnn5-c5ccc(F)nc5)C[C@]4(C)[C@H]3[C@@H](O)C[C@@]21C [Example 159, (1R,3aS,3bS,10aR,10bS,11S,12aS)-7-(6-Fluoropyridin-3-yl)-11-hydroxy-1-{[(2-hydroxyethyl)sulfanyl]carbonyl}-10a,12a-dimethyl-1,2,3,3a,3b,4,5,7,10,10b,11,12,12a-tetradecahydrocyclopenta[5,6]naphtho[1,2-f]indazol-1-yl methoxyacetate]	3.6
